The conditions of series [1]: Crystal; DTA.
Series [2] in a line: Molar enthalpy of transition or fusion. Particulars: Crystal; DSC.

Results on two compounds are retold here after the NIST ThermoML archive (doi:10.1016/j.jct.2010.06.003).

Numbers after ± are expanded uncertainties.

Regarding `O=c1oc2ccccc2cc1O` [3-hydroxycoumarin], the Triple point temperature in series [1] was 425.62 ± 0.39 K. The “Molar enthalpy of transition or fusion” value in series [2] worked out at 6.48 ± 0.146 kcal/mol.
In the case of `O=c1cc(O)c2ccccc2o1` [4-hydroxycoumarin], the Triple point temperature in series [1] is 483.62 ± 0.91 K. Besides, the “Molar enthalpy of transition or fusion” value in series [2] turned out to be 5.54 ± 0.141 kcal/mol.
